Assay results reported in patent publication US7232912B2, “Indazole compounds, pharmaceutical compositions, and methods for mediating or inhibiting cell proliferation” (Agouron Pharmaceuticals, Inc., priority 2000, dated 2007).
Like-named read-outs stand apart in the source and are kept apart here.

How the values were obtained:
[1] = target: T1, VEGF-R2 (Homo sapiens, UniProt P35968, DEL940-989/E990V); assay: VEGF-R2 Assay (coupled spectrophotometric FLVK-P / ELISA); format: biochemical; conditions: for inhibition at 1 µM: read-out: VEGF % Inhib. at 1 μM
T1 construct: VEGF-R2Δ50 contains residues 806–939 and 990–1171; made in house; host or cells: baculovirus/insect cells
Source text: VEGF-R2 Construct for Assay
This construct determines the ability of a test compound to inhibit tyrosine kinase activity. A construct (VEGF-R2Δ50) of the cytosolic domain of human vascular endothelial growth factor receptor 2 (VEGF-R2) lacking the 50 central residues of the 68 residues of the kinase insert domain was expressed in a baculovirus/insect cell system. Of the 1356 residues of full-length VEGF-R2, VEGF-R2Δ50 contains residues 806–939 and 990–1171, and also one point mutation (E990V) within the kinase insert domain relative to wild-type VEGF-R2. […] See Parast et al., Biochemistry, 37,16788–16801 (1998).
Coupled Spectrophotometric (FLVK-P) Assay
The production of ADP from ATP that accompanies phosphoryl transfer was coupled to oxidation of NADH using phosphoenolpyruvate (PEP) and a system having pyruvate kinase (PK) and lactic dehydrogenase (LDH). The oxidation of NADH was monitored by following the decrease of absorbance at 340 nm (e340=6.22 cm^1 mM^−1) using a Beckman DU 650 spectrophotometer. Assay conditions for phosphorylated VEGF-R2A50 (indicated as FLVK-P in the tables below) were the following: 1 mM PEP; 250 μM NADH; 50 units of LDH/mL; 20 units of PK/mL; 5 mM DTT; 5.1 mM poly(E4Y1); 1 mM ATP; and 25 mM MgCl2 in 200 mM Hepes, pH 7.5. Assay conditions for unphosphorylated VEGF-R2A50 (indicated as FLVK in the tables) were the following: 1 mM PEP; 250 μM NADH; 50 units of LDH/mL; 20 units of PK/mL; 5 mM DTT; 20 mM poly(E4Y1); 3 mM ATP; and 60 mM MgCl2 and 2 mM MnCl2 in 200 mM Hepes, pH 7.5. Assays were initiated with 5 to 40 nM of enzyme. Ki values were determined by measuring enzyme activity in the presence of varying concentrations of test compounds. The data were analyzed using Enzyme Kinetic and Kaleidagraph software.
Formation of phosphogastrin was monitored using biotinylated gastrin peptide (1–17) as substrate. Biotinylated phosphogastrin was immobilized using streptavidin coated 96-well microtiter plates followed by detection using anti-phosphotyrosine-antibody conjugated to horseradish peroxidase. The activity of horseradish peroxidase was monitored using 2,2′-azino-di-[3-ethylbenzathiazoline sulfonate(6)] diammonium salt (ABTS). Typical assay solutions contained: 2 μM biotinylated gastrin peptide; 5 mM DTT; 20 μM ATP; 26 mM MgCl2; and 2 mM MnCl2 in 200 mM Hepes, pH 7.5. The assay was initiated with 0.8 nM of phosphorylated VEGF-R2Δ50. Horseradish peroxidase activity was assayed using ABTS, 10 mM. The horseradish peroxidase reaction was quenched by addition of acid (H2SO4), followed by absorbance reading at 405 nm. Ki values were determined by measuring enzyme activity in the presence of varying concentrations of test compounds. The data were analyzed using Enzyme Kinetic and Kaleidagraph software.

[2] = tested on: HCT 116 cell line; assay: Inhibition of Cell Growth (MTT tetrazolium salt assay); format: cell-based; conditions: Homo sapiens
Method in brief: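 HCT 116 cells in McCoy's 5A were dosed 4 h after plating, in 0.5% (v/v) DMSO, then held 4–6 days at 37 °C, 5% CO2. MTT at 0.2 mg/mL final for 4 h; DMSO-solubilized formazan read at 540 nm. IC50 taken from the linear part of a semi-log plot versus DMSO-only controls.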

[3] = HCT 116, MTT, 50% inhibition of growth, read-out: HCT 116 IC50
[4] = HCT 116, MTT, IC90, read-out: HCT 116 IC90
[5] = HCT-116, read-out: HCT 116 IC50 (uM)
[6] = HCT-116, read-out: HCT 116 IC90 (uM)

T1 sequence (P35968 with tags, fused parts or gaps DEL940-989/E990V limits assumed): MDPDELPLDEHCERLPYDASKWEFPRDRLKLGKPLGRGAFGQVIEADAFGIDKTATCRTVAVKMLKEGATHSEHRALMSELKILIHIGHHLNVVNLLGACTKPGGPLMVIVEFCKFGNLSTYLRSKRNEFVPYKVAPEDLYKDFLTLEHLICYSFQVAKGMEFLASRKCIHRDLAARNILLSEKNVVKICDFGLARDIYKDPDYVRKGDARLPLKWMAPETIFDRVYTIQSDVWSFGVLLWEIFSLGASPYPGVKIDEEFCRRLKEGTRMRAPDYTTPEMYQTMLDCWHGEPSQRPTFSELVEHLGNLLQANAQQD

inhibition at 1 µM [1] | IC50 [2, 3] | IC90 [2, 4] | Ki [1] | Structure (SMILES) | IC50 [2, 5] | IC90 [2, 6]
36% | 3 µM | 5 µM | – | C(=C\c1n[nH]c2ccc(-c3cncc4ccccc34)cc12)/c1ccccc1 [Example 16] | – | –
6% | 0.18 µM | 0.8 µM | – | OCc1cccc2[nH]c(-c3n[nH]c4ccc(-c5cncc6ccccc56)cc34)nc12 [Example 29, [2-(5-Isoquinolin-4-yl-1H-indazol-3-yl)-1H-benzoimidazol-4-yl]-methanol] | – | –
17% | – | – | 2900 nM | CN(C)Cc1cccc2[nH]c(-c3n[nH]c4ccc(-c5cncc6ccccc56)cc34)nc12 [Example 31, [2-(5-Isoquinolin-4-yl-1H-indazol-3-yl)-1H-benzoimidazol-4-ylmethyl]-dimethyl-amine] | – | –
15% | 0.024 µM | 0.06 µM | – | CCN(CC)Cc1cccc2[nH]c(-c3n[nH]c4ccc(-c5cncc6ccccc56)cc34)nc12 [Example 36, Diethyl-[2-(5-isoquinolin-4-yl-1H-indazol-3-yl)-1H-benzoimidazol-4-ylmethyl]-amine] | – | –
51% | – | – | – | CCc1cncc(-c2ccc3[nH]nc(/C=C/c4ccccc4)c3c2)c1Cl [Example 46, 5-(4-Chloro-5-ethyl-pyridin-3-yl)-3-(E)-styryl-1H-indazole] | – | –
38% | 0.5 µM | 2.2 µM | – | Clc1ccncc1-c1ccc2[nH]nc(-c3nc4ccccc4[nH]3)c2c1 [Example 52, 3-(1H-Benzoimidazol-2-yl)-5-(4-chloro-pyridin-3-yl)-1H-indazole] | – | –
32% | 0.2 µM | 0.75 µM | – | Cc1c(-c2ccncc2)cncc1-c1ccc2[nH]nc(-c3nc4ccccc4[nH]3)c2c1 [Example 53, 5-[3-(1H-Benzoimidazol-2-yl)-1H-indazol-5-yl]-4-methyl-[3,4′]bipyridinyl] | – | –
46% | 0.079 µM | 0.23 µM | – | c1ccc2[nH]c(-c3n[nH]c4ccc(-c5cncc6c5CCCN6)cc34)nc2c1 [Example 54] | – | –
32% | 1.5 µM | 5 µM | – | O=C(Nc1cccc2c(-c3ccc4[nH]nc(-c5nc6ccccc6[nH]5)c4c3)cncc12)c1cccnc1 [Example 55, N-{4-[3-(1H-Benzoimidazol-2-yl)-1H-indazol-5-yl]-isoquinolin-8-yl}-nicotinamide] | – | –
17% | 0.46 µM | 1.3 µM | – | Cc1c(-c2cccnc2)cncc1-c1ccc2[nH]nc(-c3nc4ccccc4[nH]3)c2c1 [Example 58] | – | –
31% | 0.2 µM | 0.48 µM | – | Cc1c(/C=C/CO)cncc1-c1ccc2[nH]nc(-c3nc4ccccc4[nH]3)c2c1 [Example 59, (E)-3-{5-[3-(1H-Benzoimidazol-2-yl)-1H-indazol-5-yl]-4-methyl-pyridin-3-yl}-prop-2-en-1-ol] | – | –
26% | 0.2 µM | 0.5 µM | – | Cc1c(CCCO)cncc1-c1ccc2[nH]nc(-c3nc4ccccc4[nH]3)c2c1 [Example 60, (E)-3-{5-[3-(1H-Benzoimidazol-2-yl)-1H-indazol-5-yl]-4-methyl-pyridin-3-yl}-propan-1-ol] | – | –
18% | 0.22 µM | 0.5 µM | – | CCc1c(-c2ccncc2)cncc1-c1ccc2[nH]nc(-c3nc4ccccc4[nH]3)c2c1 [Example 61, 5-[3-(1H-Benzoimidazol-2yl)-1H-indazol-5-yl]-4ethyl-[3,4′]bipyridinyl] | – | –
38% | 0.69 µM | 2.1 µM | – | Cc1c(-c2cccc(CO)c2)cncc1-c1ccc2[nH]nc(-c3nc4ccccc4[nH]3)c2c1 [Example 69, (3-{5-[3-(1H-Benzoimidazol-2-yl)-1H-indazol-5-yl]-4-methyl-pyridin-3-yl}-phenyl)-methanol] | – | –
45% | 0.18 µM | 0.44 µM | – | CS(=O)(=O)Nc1ccc2nc(-c3n[nH]c4ccc(-c5cncc6ccccc56)cc34)[nH]c2c1 [Example 70, N-[2-(5-Isoquinolin-4-yl-1H-indazol-3-yl)-3H-benzoimidazol-5-yl]-methanesulfonamide] | – | –
42% | 0.7 µM | 2 µM | – | Cc1c(-c2ccncc2)cncc1-c1ccc2[nH]nc(-c3nc4ccc(NS(C)(=O)=O)cc4[nH]3)c2c1 [Example 71, N-{2-[5-(4-methyl-[3,4′]bipyridinyl-5-yl)-1H-indazol-3-yl)-3H-benzoimidazol-5-yl]-methanesulfonamide] | – | –
24% | 0.15 µM | 0.53 µM | – | Cc1c(CO)cncc1-c1ccc2[nH]nc(-c3nc4ccccc4[nH]3)c2c1 [Example 72, {5-[3-(1H-Benzoimidazol-2-yl)-1H-indazol-5-yl]-4-methyl-pyridin-3-yl}-methanol] | – | –
15% | 0.2 µM | 0.6 µM | – | Cc1c(CN(C)C)cncc1-c1ccc2[nH]nc(-c3nc4ccccc4[nH]3)c2c1 [Example 73, {5-[3-(1H-Benzoimidazol-2-yl)-1H-indazol-5-yl]-4-methyl-pyridin-3-ylmethyl}-dimethyl-amine] | – | –
14% | – | – | – | CCNCc1cncc(-c2ccc3[nH]nc(-c4nc5ccccc5[nH]4)c3c2)c1C [Example 74, {5-[3-(1H-Benzoimidazol-2-yl)-1H-indazol-5-yl]-4-methyl-pyridin-3-ylmethyl}-ethyl-amine] | – | –

Structure (SMILES) | inhibition at 1 µM [1] | IC50 [2, 3] | IC90 [2, 4] | Ki [1] | IC50 [2, 5] | IC90 [2, 6]
CCNCc1cccc2[nH]c(-c3n[nH]c4ccc(-c5cncc6ccccc56)cc34)nc12 [Example 37, Ethyl-[2-(5-isoquinolin-4-yl-1H-indazol-3-yl)-1H-benzoimidazol-4-ylmethyl]-amine] | 17% | – | – | – | 0.041 µM | 0.12 µM
CC(C)NCc1cccc2[nH]c(-c3n[nH]c4ccc(-c5cncc6ccccc56)cc34)nc12 [Example 38, Isopropyl-[2-(5-isoquinolin-4-yl-1H-indazol-3-yl)-1H-benzoimidazol-4-ylmethyl]-amine] | 9% | – | – | – | 0.029 µM | 0.06 µM
c1ccc2[nH]c(-c3n[nH]c4ccc(-c5cccc6[nH]ccc56)cc34)nc2c1 [Example 48, 3-(1H-Benzoimidazol-2-yl)-5-(1H-indol-4-yl)-1H-indazole] | – | 3.9 µM | 5 µM | – | – | –
